In assay [1] the target is NA activity of rgPR8(H275Y) (Influenza A virus, UniProt P03468, H260Y). It is filed as biochemical.
Assay [2] concerns the target NA activity of influenza virus PR8 (Influenza A virus, UniProt P03468). It is filed as biochemical.

Experimental findings from paper PMC5361735, “Characterization and mechanisms of anti-influenza virus metabolites isolated from the Vietnamese medicinal plant Polygonum chinense” (BMC Complementary and Alternative Medicine, 2017) are described below.

`O=C(O)/C=C/c1ccc(O)c(O)c1` [PC8, Caffeic acid]: the “NA inhibitory effect against rgPR8(H275Y)” value in assay [1] is on record as “consistent activity”. Further, the “NA inhibitory effect against PR8” value in assay [2] is on record as “less potent than that of OSV-C”.
